Measured values from patent US11450805B2, “Compound, semiconductor material, and methods for manufacturing coating and semiconductor using the same” (Merck Patent GmbH, priority 2016, dated 2022).

Test: Evaluation of solubility of solute in solvents (visual inspection)
Format: physicochemical
Settings: stirring at room temperature for 60 minutes; for Solubility, solvent PGME:EL = 7:3: PGME:EL = 7:3 volume ratio; for Solubility, solvent PGME:PGMEA = 7:3: PGME:PGMEA = 7:3 volume ratio
Procedure: Comparative compound 1 was added as a solute to each of the various solvents listed in Table 1 in an amount of 10% by mass, and mixed with the solvent by stirring at room temperature for 60 minutes. When 10% by mass of the solute was not fully dissolved in the solvent, the amount of the solute added was changed to 1% by mass, and 1% by mass of the solute was mixed with the solvent in the same manner as above.
The state of dissolution of the solute was visually inspected and evaluated as follows.
A: Even when the amount of the solute mixed with the solvent was 10% by mass, the solute was fully dissolved.
B: When the amount of the solute mixed with the solvent was 10% by mass, the solute was not fully dissolved and some of it remained undissolved, while when the amount of the solute mixed with the solvent was 1% by mass, the solute was fully dissolved.
C: Even when the amount of the solute mixed with the solvent was 1% by mass, the solute was not fully dissolved and some of it remained undissolved.
Experiments were conducted in the same manner as above, except for changing the solute from comparative compound 1 to other compounds listed in Table 1.

Row | SMILES | Solubility, solvent PGME:EL = 7:3 | Solubility, solvent PGME:PGMEA = 7:3 | Solubility, solvent PGME
1 | c1ccc(-c2c(-c3ccccc3)c(-c3ccccc3)c(-c3ccc(-c4c(-c5ccccc5)c(-c5ccccc5)c(-c5ccccc5)c(-c5ccccc5)c4-c4ccccc4)cc3)c(-c3ccccc3)c2-c2ccccc2)cc1 [Comparative compound 1, reference compound] | C (Even when the amount of the solute mixed with the solvent was 1% by mass, the solute was not fully dissolved and some of it remained undissolved.) | C (Even when the amount of the solute mixed with the solvent was 1% by mass, the solute was not fully dissolved and some of it remained undissolved.) | C (Even when the amount of the solute mixed with the solvent was 1% by mass, the solute was not fully dissolved and some of it remained undissolved.)
2 | Oc1ccc(-c2c(-c3ccccc3)c(-c3ccccc3)c(-c3ccc(-c4c(-c5ccccc5)c(-c5ccccc5)c(-c5ccc(O)cc5)c(-c5ccc(O)cc5)c4-c4ccccc4)cc3)c(-c3ccccc3)c2-c2ccc(O)cc2)cc1 [G1] | A (Even when the amount of the solute mixed with the solvent was 10% by mass, the solute was fully dissolved.) | A (Even when the amount of the solute mixed with the solvent was 10% by mass, the solute was fully dissolved.) | A (Even when the amount of the solute mixed with the solvent was 10% by mass, the solute was fully dissolved.)
3 | Oc1ccc(-c2c(-c3ccccc3)c(-c3ccccc3)c(-c3c4ccccc4c(-c4c(-c5ccccc5)c(-c5ccccc5)c(-c5ccc(O)cc5)c(-c5ccc(O)cc5)c4-c4ccccc4)c4ccccc34)c(-c3ccccc3)c2-c2ccc(O)cc2)cc1 [G2] | A (Even when the amount of the solute mixed with the solvent was 10% by mass, the solute was fully dissolved.) | A (Even when the amount of the solute mixed with the solvent was 10% by mass, the solute was fully dissolved.) | A (Even when the amount of the solute mixed with the solvent was 10% by mass, the solute was fully dissolved.)
4 | Oc1ccc(-c2c(-c3ccccc3)cc(-c3ccc(-c4cc(-c5ccccc5)c(-c5ccc(O)cc5)c(-c5ccc(O)cc5)c4-c4ccccc4)cc3)c(-c3ccccc3)c2-c2ccc(O)cc2)cc1 [G3] | A (Even when the amount of the solute mixed with the solvent was 10% by mass, the solute was fully dissolved.) | A (Even when the amount of the solute mixed with the solvent was 10% by mass, the solute was fully dissolved.) | A (Even when the amount of the solute mixed with the solvent was 10% by mass, the solute was fully dissolved.)
5 | Oc1ccc(-c2c(-c3ccc(O)cc3)c(-c3ccc(O)cc3)c(-c3ccc(O)cc3)c(-c3ccc(O)cc3)c2-c2ccc(O)cc2)cc1 [G5] | A (Even when the amount of the solute mixed with the solvent was 10% by mass, the solute was fully dissolved.) | A (Even when the amount of the solute mixed with the solvent was 10% by mass, the solute was fully dissolved.) | A (Even when the amount of the solute mixed with the solvent was 10% by mass, the solute was fully dissolved.)
6 | Oc1ccc(-c2c(-c3ccccc3)c(-c3ccccc3)c(-c3ccc(-c4ccc(-c5c(-c6ccccc6)c(-c6ccccc6)c(-c6ccc(O)cc6)c(-c6ccc(O)cc6)c5-c5ccccc5)cc4)cc3)c(-c3ccccc3)c2-c2ccc(O)cc2)cc1 [G6] | A (Even when the amount of the solute mixed with the solvent was 10% by mass, the solute was fully dissolved.) | A (Even when the amount of the solute mixed with the solvent was 10% by mass, the solute was fully dissolved.) | A (Even when the amount of the solute mixed with the solvent was 10% by mass, the solute was fully dissolved.)
7 | Oc1ccc(-c2c(-c3ccccc3)c(-c3ccccc3)c(-c3c(-c4ccccc4)c(-c4c(-c5ccccc5)c(-c5ccccc5)c(-c5ccc(O)cc5)c(-c5ccc(O)cc5)c4-c4ccccc4)c(-c4ccccc4)c(-c4c(-c5ccccc5)c(-c5ccccc5)c(-c5ccc(O)cc5)c(-c5ccc(O)cc5)c4-c4ccccc4)c3-c3ccccc3)c(-c3ccccc3)c2-c2ccc(O)cc2)cc1 [G7] | B (When the amount of the solute mixed with the solvent was 10% by mass, the solute was not fully dissolved and some of it remained undissolved, while when the amount of the solute mixed with the solvent was 1% by mass, the solute was fully dissolved.) | B (When the amount of the solute mixed with the solvent was 10% by mass, the solute was not fully dissolved and some of it remained undissolved, while when the amount of the solute mixed with the solvent was 1% by mass, the solute was fully dissolved.) | A (Even when the amount of the solute mixed with the solvent was 10% by mass, the solute was fully dissolved.)
8 | Nc1ccc(-c2c(-c3ccccc3)c(-c3ccccc3)c(-c3ccccc3)c(-c3ccccc3)c2-c2ccc(N)cc2)cc1 [G8] | A (Even when the amount of the solute mixed with the solvent was 10% by mass, the solute was fully dissolved.) | A (Even when the amount of the solute mixed with the solvent was 10% by mass, the solute was fully dissolved.) | A (Even when the amount of the solute mixed with the solvent was 10% by mass, the solute was fully dissolved.)
9 | COc1ccc(-c2c(-c3ccccc3)c(-c3ccccc3)c(-c3ccc(-c4c(-c5ccccc5)c(-c5ccccc5)c(-c5ccc(OC)cc5)c(-c5ccc(OC)cc5)c4-c4ccccc4)cc3)c(-c3ccccc3)c2-c2ccc(OC)cc2)cc1 [Intermediate G0, reference compound] | C (Even when the amount of the solute mixed with the solvent was 1% by mass, the solute was not fully dissolved and some of it remained undissolved.) | C (Even when the amount of the solute mixed with the solvent was 1% by mass, the solute was not fully dissolved and some of it remained undissolved.) | C (Even when the amount of the solute mixed with the solvent was 1% by mass, the solute was not fully dissolved and some of it remained undissolved.)
